Consider eight compounds from patent publication US7071344B1, “Vitamin D derivatives with cyclopropyl rings in the lateral chains, a method and intermediate products for the production thereof and the utilization thereof for producing medicaments” (Schering AG, priority 1997, dated 2006).

A short description of data set [1]: metabolic stability in liver homogenate. Type of data set: in vitro ADME. Conditions: half-life in the liver homogenate (rat). Here is the method: To determine the metabolic stability, the test substance is incubated with tissue homogenate (from the rat liver) in the presence of buffer systems. The drop in starting concentration is tracked as a function of time. After a certain time, the incubation is stopped, and the unaltered test substance is extracted from the homogenate (diethyl ether), concentrated by evaporation under nitrogen, isolated via HPLC (mobile solvent: acetonitrile/water) and detected using UV-absorption.

Another data set has as its target T1, calcitriol receptor (Sus scrofa, UniProt A3RGC1).
T1 sequence (A3RGC1 1-427): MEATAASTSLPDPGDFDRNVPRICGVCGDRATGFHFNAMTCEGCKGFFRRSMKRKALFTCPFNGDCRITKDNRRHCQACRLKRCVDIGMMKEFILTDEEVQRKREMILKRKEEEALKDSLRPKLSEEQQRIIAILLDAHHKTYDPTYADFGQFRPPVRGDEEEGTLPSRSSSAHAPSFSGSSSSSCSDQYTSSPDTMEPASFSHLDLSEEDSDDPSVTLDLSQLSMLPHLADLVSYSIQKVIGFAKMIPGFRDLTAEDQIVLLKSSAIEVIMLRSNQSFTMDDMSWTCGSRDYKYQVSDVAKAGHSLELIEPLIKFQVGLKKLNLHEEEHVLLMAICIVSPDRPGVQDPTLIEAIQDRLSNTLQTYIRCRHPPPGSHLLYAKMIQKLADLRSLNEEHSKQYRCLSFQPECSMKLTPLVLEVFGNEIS
Kind of data set: calcitriol-receptor test (competition with 3H-calcitriol). Conditions: competition factor = concentration of test substance / concentration of calcitriol at 50% competition; protein extract from intestines of juvenile pigs.

Data set [2] in a line: acute hypercalcemic action (serum-calcium) in rats. It counts as in vivo, rat. Conditions: dose ratio test substance/calcitriol for comparable hypercalcemic action; one-time subcutaneous administration, male rats. Here is the method:
To determine the acute hypercalcemic action of various calcitriol derivatives, the test that is described below is carried out:
The action of control (solution base), reference substance (1,25-dihydroxy vitamin D3=calcitriol) and test substance is tested in each case after one-time subcutaneous administration in groups of 10 healthy male rats (140–170 g). During the testing time, the rats are kept in special cages to determine the excretion of water and mineral substances. Urine is collected in 2 fractions (0–16 hours and 16–22 hours). An oral dose of calcium (0.1 mmol of calcium in 6.5% alpha-hydroxypropylcellulose, 5 ml/animal) replaces at 1600 hours the calcium intake that is lacking by food deprivation. At the end of the test, the animals are killed by decapitation and exsanguinated to determine the serum-calcium values. For the primary screen test in vivo, an individual standard dose (200 μg/kg) is tested. For selected substances, the result is supported by establishing a dose-effect relation.
A hypercalcemic action is shown in serum-calcium level values that are higher than in the control.
The significance of differences between substance groups and controls and between test substance and reference substance are supported with suitable statistical processes.

The test system of a further data set is HL 60 cells. Kind of data set: differentiation induction of HL 60 cells to macrophages (NBT reduction). It counts as cell-based, human. Conditions: dose ratio test substance/calcitriol for comparable semi-maximum differentiation induction; 96 hours incubation. As for the experimental part: The differentiation-stimulating action of calcitriol analogues is also detected quantitatively.
It is known in the literature [Mangelsdorf, D. J. et al., J. Cell. Biol. 98: 391 (1984)] that the treatment of human leukemia cells (promyelocyte cell line HL 60) in vitro with calcitriol induces the differentiation of cells to macrophages.
HL 60 cells are cultivated in tissue culture medium (RPMI 10% fetal calf serum) at 37° C. in an atmosphere of 5% CO2 in air.
For substance testing, the cells are centrifuged off, and 2.0×10^5 cells/ml in phenol red-free tissue culture medium is taken up. The test substances are dissolved in ethanol and diluted with tissue culture medium without phenol red to the desired concentration. The dilution stages are mixed with the cell suspension at a ratio of 1:10, and 100 μl each of this cell suspension that is mixed with substance is pipetted into an indentation of a 96-hole plate. For control, a cell suspension is mixed analogously with the solvent.
After incubation for 96 hours at 37° C. in 5% CO2 in air, 100 μl of an NBT-TPA solution (nitro blue tetrazolium (NBT), final concentration in the batch of 1 mg/ml, tetradecanoyl phorbolmyristate-13-acetate (TPA), final concentration in the batch of 2×10^−7 mol/l) is pipetted into each indentation of the 96-hole plate in the cell suspension.
By incubation for 2 hours at 37° C. and 5% CO2 in air, NBT is reduced to insoluble formazan because of the intracellular oxygen radical release, stimulated by TPA, in the cells that are differentiated to macrophages.
To complete the reaction, the indentations of the 96-hole plate are suctioned off, and the cells are affixed to the bottom of the plate by adding methanol and dried after affixing. To dissolve the intracellular formazan crystals that are formed, 100 μl of potassium hydroxide (2 mol/l) and 100 μl of dimethyl sulfoxide are pipetted into each indentation and ultrasonically treated for 1 minute. The concentration of formazan is measured by spectrophotometry at 650 nm.
As a yardstick for the differentiation induction of HL 60 cells to macrophages, the concentration of formed formazan applies.

Bounds are passed on as bounds.

Protocol for calcitriol receptor: The vitamin D activity of the substances according to the invention is determined with the aid of the calcitriol-receptor test. It is carried out using a protein extract from the intestines of juvenile pigs.
Then, the samples are centrifuged at 10,000 g for 5 minutes at 4° C. The supernatant is decanted and measured in a β-counter after 1 hour of equilibration in Picofluor 15™.
The competition curves that are obtained at various concentrations of test substance as well as of reference substance (unlabeled calcitriol) at constant concentration of the reference substance (^3H-calcitriol) are placed in relation to one another, and a competition factor (KF) is determined.
It is defined as a quotient of the concentrations of the respective test substance and the reference substance, which are necessary for 50% competition:

In the case of `C=C1/C(=C\C=C2/CCC[C@]3(C)[C@@H]([C@H](C)/C=C/[C@@H](O)C4(CC)CC4)CC[C@@H]23)C[C@@H](O)C[C@@H]1O` [Compound 214b, (5Z,7E,22E)-(1S,3R,24R)-25-ethyl-26,27-cyclo-9,10-secocholesta-5,7,10(19),22-tetraene-1,3,24-triol], the “T½” value in data set [1] was 1.67 h. For the same compound, the KF at calcitriol receptor worked out at 1. The “DR Ca” value in data set [2] is reported as greater than 1. In addition, the “DR HL 60” value in the data set with HL 60 cells turned out to be 0.1.
As to `C=C1/C(=C\C=C2/CCC[C@]3(C)[C@@H]([C@H](C)/C=C/[C@@H](O)C4(/C=C/CC)CC4)CC[C@@H]23)C[C@@H](O)C[C@@H]1O` [Compound 221b, [5Z,7E,22E,25(E)]-(1S,3R,24R)-25-(1-butenyl)-26,27-cyclo-9,10-secocholesta-5,7,10(19),22-tetraene-1,3,24-triol], the “T½” value in data set [1] stood at 1.5 h. The KF on calcitriol receptor was 2. Further, the “DR Ca” value in data set [2] is 10. In the data set on HL 60 cells, the “DR HL 60” value is reported as 0.1.
For `C=C1/C(=C\C=C2/CCC[C@]3(C)[C@@H]([C@H](C)/C=C/[C@H](O)C4(CCCC)CC4)CC[C@@H]23)C[C@@H](O)C[C@@H]1O` [Compound 226a, (5Z,7E,22E)-(1S,3R,24S)-25-Butyl-26,27-cyclo-9,10-secocholesta-5,7,10(19),22-tetraene-1,3,24-triol], in that order: 1.33 h, 4, >>1 and 2.
On the same counts, the results for `C=C1C(=CC=C2CCCC3(C)C2CCC3C(C)C=CC(O)C2(CCCC)CC2)CC(O)CC1O` [Compound 226b, (5Z,7E,22E)-(1S,3R,24R)-25-butyl-26,27-cyclo-9,10-secocholesta-5,7,10(19),22-tetraene-1,3,24-triol] are 1.67 h, 3, greater than 5 and 0.4.
For `C=C1/C(=C\C=C2/CCC[C@]3(C)[C@@H]([C@H](C)/C=C/[C@@H](O)C4(CCCCCC)CC4)CC[C@@H]23)C[C@@H](O)C[C@@H]1O` [Compound 231b, (5Z,7E,22E)-(1S,3R,24R)-25-hexyl-26,27-cyclo-9,10-secocholesta-5,7,10(19),22-tetraene-1,3,24-triol], in that order: 1.25 h, 9, greater than 100 and 2.
Turning to `C=C1/C(=C\C=C2/CCC[C@]3(C)[C@@H]([C@H](C)/C=C/[C@@H](O)C4(CCCCCCC)CC4)CC[C@@H]23)C[C@@H](O)C[C@@H]1O` [Compound 236b, (5Z,7E,22E)-(1S,3R,24R)-25-heptyl-26,27-cyclo-9,10-secocholesta-5,7,10(19),22-tetraene-1,3,24-triol], the “T½” value in data set [1] worked out at 1.67 h. At calcitriol receptor, the KF was 20. In addition, in data set [2], the “DR Ca” value is reported as >>30. In addition, the “DR HL 60” value in the data set with HL 60 cells stood at 4.
Consider `C=C1/C(=C\C=C2/CCC[C@]3(C)[C@@H]([C@H](C)/C=C/[C@@H](O)C4CC4)CC[C@@H]23)C[C@@H](O)C[C@@H]1O` [calcipotriol, (5Z,7E,22E)-(1S,3R,24S)-26,27-Cyclo-9,10-secocholesta-5,7,10(19),22-tetraene-1,3,24-triol, reference compound], for which, in data set [1] (read-out: T½), the half-life amounted to 0.667 h. For the same compound, the KF at calcitriol receptor is listed as 1. The “DR Ca” value in data set [2] is listed as 50. Further, the “DR HL 60” value in the data set on HL 60 cells stood at 1.
For the compound “[5Z,7E,22E,25(Z)]-(1S,3R,24S)-25-(1-octenyl)-26,27-cyclo-9,10-secocholesta-5,7,10(19),22-tetraene-1,3,24-triol [Compound 246b]”, the “T½” value in data set [1] is 1.67 h. Besides, the KF on calcitriol receptor worked out at 10. Further, the “DR Ca” value in data set [2] is >>10. For the same compound, the “DR HL 60” value with HL 60 cells turned out to be 2.
